{
  "source": "paper PMC8956739",
  "about": "“A synthetic lipopeptide targeting top-priority multidrug-resistant Gram-negative pathogens” (Nature Communications, 2022)",
  "key": {"[1]": {"tested_on": "K. pneumoniae FADDI-KP132 (mcr-1 positive)", "assay": "Neutropenic mouse pneumonia model, polymyxin-resistant isolate", "assay_type": "in vivo", "details": "90mg/kg/d", "experimental": "(§1) The experimental methodology for the neutropenic mouse lung infection model was previously described in detail. Briefly, Swiss mice (female, 7-week-old, 22–28 g) were rendered neutropenic by intraperitoneal administration of cyclophosphamide, 4 days (150 mg/kg) and 1 day (100 mg/kg) prior to inoculation. Lung infection was established by the administration of 25 µL of early log-phase bacterial suspension (polymyxin-susceptible or resistant isolate, 4 × 10^7 CFU/mL), directly into the lungs via the trachea using a MicroSprayer™ device. Lipopeptide solutions were prepared in sterile saline. At 2 h after inoculation, mice (n = 3 or 4) were administered lipopeptide (45–240 mg/kg/d free base) or control (sterile saline) via an intraperitoneal or subcutaneous bolus injection in three divided doses every 8 h. At 0 or 24 h after the administration of lipopeptide solution or saline (control), animals were euthanized and lungs were collected and homogenized under sterile conditions. Homogenate was filtered and the filtrate was collected, serially diluted in sterile saline, and spread on nutrient agar plates. Agar plates were incubated at 37 °C overnight for bacterial colony counting and the bacterial load of the lung (log10 CFU/lung) in each mouse was calculated. In vivo efficacy was calculated as the difference of the log10 CFU/lung values between the treated mice at 24 h and the pre-treatment (control) at 0 h (Δlog10 CFU/lung = log10 [treated] CFU/lung − log10 [pre-treatment] CFU/lung)."}, "[2]": {"tested_on": "P. aeruginosa FADDI-PA102", "assay": "Neutropenic mouse pneumonia model, polymyxin-resistant isolate", "assay_type": "in vivo", "details": "90mg/kg/d", "experimental": "as §1"}, "A. baumannii FADDI-AB156": {"tested_on": "A. baumannii FADDI-AB156", "assay": "Neutropenic mouse pneumonia model, polymyxin-resistant isolate", "assay_type": "in vivo", "details": "90mg/kg/d", "experimental": "as §1"}, "[3]": {"tested_on": "K. pneumoniae FADDI-KP065", "assay": "Neutropenic mouse pneumonia model", "assay_type": "in vivo", "experimental": "as §1"}, "A. baumannii FADDI-AB051": {"tested_on": "A. baumannii FADDI-AB051", "assay": "Neutropenic mouse pneumonia model", "assay_type": "in vivo", "experimental": "as §1"}, "[4]": {"tested_on": "P. aeruginosa FADDI-PA038", "assay": "Neutropenic mouse pneumonia model", "assay_type": "in vivo", "experimental": "as §1"}, "A. baumannii FADDI-AB30": {"tested_on": "A. baumannii FADDI-AB30", "assay": "Neutropenic mouse thigh infection model", "assay_type": "in vivo", "details": "45mg/kg/d", "experimental": "The experimental methodology for the neutropenic mouse thigh infection model was previously described in detail. Briefly, Swiss mice (female, 7-week-old, 22–28 g) were rendered neutropenic by intraperitoneal administration of cyclophosphamide 4 days (150 mg/kg) and 1 day (100 mg/kg) prior to inoculation. Thigh infection was established by the administration of a 50 µL bolus of early log-phase bacterial suspension (4 × 10^8 CFU/mL) directly into each thigh of two mice in each group (n = 4 thighs); this method is well accepted in antibiotic pharmacokinetic/ pharmacodynamic studies to minimize animal usage. Lipopeptide solutions were prepared in sterile saline. At 2 h after inoculation, mice were administered a lipopeptide or control solution via an intraperitoneal bolus injection at 15 mg/kg, three doses every 8 h. At 0 and 24 h after the administration, animals were euthanized and each thigh was collected and homogenized under sterile conditions. Homogenate was filtered and the filtrate was collected, serially diluted in sterile saline, and spread on nutrient agar plates. Agar plates were incubated at 37 °C overnight for bacterial colony counting and the bacterial load of both thighs (log10 CFU/thigh) in each mouse was calculated. In vivo efficacy was calculated as the difference of the log10 CFU/thigh values between the treated mice at 24 h and the pre-treatment (control) at 0 h (Δlog10 CFU/thigh = log10 [treated] CFU/thigh − log10 [pre-treatment] CFU/thigh)."}, "[5]": {"assay": "Plasma pharmacokinetics in mice", "assay_type": "in vivo, mouse", "details": "mouse, in vivo, ip, 5 mg/kg", "experimental": "The plasma pharmacokinetic profiles of F365 and polymyxin B were assessed in Swiss mice (female, 7-week-old, 22–28 g) after a single intraperitoneal dose (5 mg/kg, n = 3). Blood samples were collected at various time points over 24 h post dosing for analysis. The plasma pharmacokinetic profiles of F365 (n = 5) and polymyxin B (1 mg/kg, n = 11) in Sprague-Dawley rats (male, 10-week-old, 280 to 330 g) were assessed after intravenous administration (1 min) of F365 and polymyxin B via an indwelling jugular vein cannula. Blood samples (~0.3 mL) were collected via an indwelling carotid artery cannula at various time points over 24 h post dosing. Urine samples were collected at 4 °C using a metabolic cage during the period between 0 and 24 h post dosing. Concentrations of F365 and polymyxin B in plasma and urine samples were determined using LC-MS/MS and pharmacokinetic analysis was conducted using WinNonlin (Pharsight Corp., Mountain View, CA). The ELF pharmacokinetic profiles of F365 and polymyxin B was determined in neutropenic Swiss mice (female, 7-week-old, 22–28 g) after subcutaneous injection (40 mg/kg, n = 3). Bronchoalveolar lavage (BAL) samples were collected at various time points over 24 h post dosing from the cannulated trachea using Milli-Q water as BAL washing media. The average volume of ELF in mice was calculated by the ratio of urea concentrations in plasma and BAL samples. Concentrations of F365 and polymyxin B in plasma and BAL were analyzed by LC-MS/MS. Pharmacokinetic parameters were calculated using a non-compartment model with WinNonlin. For mouse, rat, and human plasma protein binding of F365 and polymyxin B, pooled plasma samples (n = 3) from each species were spiked with F365 or polymyxin B. The spiked plasma samples were subjected to ultrafiltration and the corresponding filtrates were analyzed by LC-MS/MS to determine the concentration of F365 and polymyxin B and the protein binding in each species."}, "[6]": {"details": "45 mg/kg/d IP in three divided doses every 8 h"}},
  "note": "“And” between values parts separate entries of the source, which are not always exact repeats. Identical values can stand only once.",
  "data": [
    {"substance": "Polymyxin B [reference compound]", "values": [
      {"measurement": "Tukey HSD diff, Pre-treatment minus treated group (Log10 CFU/lung)", "setting": "[1]; Fig. f", "value": -1.82},
      {"measurement": "Tukey HSD diff, Vehicle minus treated group (Log10 CFU/lung)", "setting": "[1]; Fig. f", "value": 1.0725},
      {"measurement": "Log10 CFU/lung", "setting": "[1]; Figure 3f, individual mice", "value": "7.88 Log10 CFU/lung and 8.02 Log10 CFU/lung and 6.98 Log10 CFU/lung and 6.57 Log10 CFU/lung"},
      {"measurement": "Tukey HSD diff, Pre-treatment minus treated group (Log10 CFU/lung)", "setting": "[2]; Fig. d", "value": -0.1967},
      {"measurement": "Tukey HSD diff, Vehicle minus treated group (Log10 CFU/lung)", "setting": "[2]; Fig. d", "value": 0.1873},
      {"measurement": "Log10 CFU/lung", "setting": "[2]; Figure 3d, individual mice", "value": "7.28 Log10 CFU/lung and 7.23 Log10 CFU/lung and 7.74 Log10 CFU/lung"},
      {"measurement": "Tukey HSD diff, Pre-treatment minus treated group (Log10 CFU/lung)", "setting": "A. baumannii FADDI-AB156; Fig. e", "value": -1.5075},
      {"measurement": "Tukey HSD diff, Vehicle minus treated group (Log10 CFU/lung)", "setting": "A. baumannii FADDI-AB156; Fig. e", "value": -0.114},
      {"measurement": "Log10 CFU/lung", "setting": "A. baumannii FADDI-AB156; Figure 3e, individual mice", "value": "8.23 Log10 CFU/lung and 8.17 Log10 CFU/lung and 7.75 Log10 CFU/lung"},
      {"measurement": "bacterial killing in lung at 24 h vs pre-treatment inoculum", "setting": "[3]; [6]", "value": "did not show any significant killing"},
      {"measurement": "Tukey HSD diff, Pre-treatment minus treated group (Log10 CFU/lung)", "setting": "[3]; Fig. c, 45mg/kg/d", "value": -0.6875},
      {"measurement": "Tukey HSD diff, Vehicle minus treated group (Log10 CFU/lung)", "setting": "[3]; Fig. c, 45mg/kg/d", "value": 1.1935},
      {"measurement": "Log10 CFU/lung", "setting": "[3]; Figure 3c, 45mg/kg/d, individual mice", "value": "7.24 Log10 CFU/lung and 7.26 Log10 CFU/lung and 7.84 Log10 CFU/lung and 7.07 Log10 CFU/lung"},
      {"measurement": "bacterial killing in lung at 24 h vs pre-treatment inoculum", "setting": "A. baumannii FADDI-AB051; [6]", "value": "did not show any significant killing"},
      {"measurement": "Tukey HSD diff, Pre-treatment minus treated group (Log10 CFU/lung)", "setting": "A. baumannii FADDI-AB051; Fig. b, 45mg/kg/d", "value": -1.5825},
      {"measurement": "Tukey HSD diff, Vehicle minus treated group (Log10 CFU/lung)", "setting": "A. baumannii FADDI-AB051; Fig. b, 45mg/kg/d", "value": 0.4067},
      {"measurement": "Log10 CFU/lung", "setting": "A. baumannii FADDI-AB051; Figure 3b, 45mg/kg/d, individual mice", "value": "8.40 Log10 CFU/lung and 8.27 Log10 CFU/lung and 8.53 Log10 CFU/lung and 8.10 Log10 CFU/lung"},
      {"measurement": "bacterial killing in lung at 24 h vs pre-treatment inoculum", "setting": "[4]; [6]", "value": "did not show any significant killing"},
      {"measurement": "Tukey HSD diff, Pre-treatment minus treated group (Log10 CFU/lung)", "setting": "[4]; Fig. a, 45mg/kg/d", "value": -1.2575},
      {"measurement": "Tukey HSD diff, Vehicle minus treated group (Log10 CFU/lung)", "setting": "[4]; Fig. a, 45mg/kg/d", "value": 1.661},
      {"measurement": "Log10 CFU/lung", "setting": "[4]; Figure 3a, 45mg/kg/d, individual mice", "value": "7.47 Log10 CFU/lung and 7.01 Log10 CFU/lung and 7.92 Log10 CFU/lung and 8.38 Log10 CFU/lung"},
      {"measurement": "diff of mean Log10 CFU/lung, Pre-treament minus treatment", "setting": "A. baumannii FADDI-AB30; one way ANOVA comparison, Pre-treament - treatment", "value": 3.14, "unit": "log10 CFU/thigh"},
      {"measurement": "diff of mean Log10 CFU/lung, Vehicle minus treatment", "setting": "A. baumannii FADDI-AB30; one way ANOVA comparison, Vehicle - treatment", "value": 3.4475, "unit": "log10 CFU/thigh"},
      {"measurement": "Log10 CFU/lung, Thigh 1", "setting": "A. baumannii FADDI-AB30; neutropenic mouse thigh infection, Thigh 1 (Supp Fig. 4)", "value": 5.16, "unit": "log10 CFU/thigh"},
      {"measurement": "Log10 CFU/lung, Thigh 2", "setting": "A. baumannii FADDI-AB30; neutropenic mouse thigh infection, Thigh 2 (Supp Fig. 4)", "value": 5.25, "unit": "log10 CFU/thigh"},
      {"measurement": "Log10 CFU/lung, Thigh 3", "setting": "A. baumannii FADDI-AB30; neutropenic mouse thigh infection, Thigh 3 (Supp Fig. 4)", "value": 3.38, "unit": "log10 CFU/thigh"},
      {"measurement": "Log10 CFU/lung, Thigh 4", "setting": "A. baumannii FADDI-AB30; neutropenic mouse thigh infection, Thigh 4 (Supp Fig. 4)", "value": 2.23, "unit": "log10 CFU/thigh"},
      {"measurement": "half-life", "setting": "[5]", "value": 1.40, "unit": "h"}
    ]}
  ]
}
